Results on 20 molecules are retold here after patent publication US6716574B2, “Osp-C derived peptide fragments” (Dako A/S, priority 1996, dated 2004).

Assay [1] has as its system polyclonal anti-OspC antibodies (IgM) in sera from LB patients. Briefly: Inhibition of binding of anti-OspC antibodies in patient sera to rOspC-coated ELISA plates. The arrangement: species or system human. The note with it: for number of sera in which binding to rOspCfl was inhibited: of 5 antisera. The source says:
Therefore, a set of experiments have been carried out where the ability have been tested of a number of analogues of the C-terminus of SEQ ID NO: 3 to inhibit the immune reactivity between rOspCfl and selected antisera in an ELISA. More specifically, the ability of the various analogues to inhibit the binding of polyclonal anti-OspC antibodies in solution was examined in sera from LB patients to rOspC-coated ELISA plates.
The immunoreactivity to OspC was specified by using six randomly selected NB sera with an OD>1.5 in the IgM rOspC ELISA. The respective serum dilutions were determined, based on a serum dilution curve obtained in the IgM rOspC ELISA, for each of the six sera. The highest dilution, which still achieved the maximal OD value was used. 5 sera were diluted 1:200, and one serum 1:1000. The sera were diluted in the buffer used for the IgM rOspC ELISAs.
The affinity of the OspC derivatives was measured by incubation of each of the six sera with the respective OspC derivatives at 10 different dilutions (covering a two-fold range) overnight at 4° C. The rOspC ELISA was then performed as described previously, in order to determine the effect of the IgM binding to OspC.

Assay [2] has as its system IgM antibodies to OspC in sera from patients. Briefly: Indirect ELISA for IgM antibodies to full-length and truncated recombinant OspC (rOspC ELISA). Format: binding, human. The note with it: for immunoassay results compared with rOspCfl from B. garinii: sera of Example 2. The protocol:
Indirect ELISA for IgM Antibodies to Full-length and Truncated Recombinant OspC (rOspC ELISA)
Flat-bottom microdilution plates (Maxisorb; Nunc, Roskilde, Denmark) were coated with 100 μl of rOspC diluted in 0.05 M bicarbonate pH 9.6 for 1 hour at 20° C. on a rocker platform and thereafter overnight at 4° C. The optimum coating concentration was defined as the antigen dilution resulting in the highest ratio of the optical density (OD) between a positive and a negative control serum (P/N ratio). The plates were washed four times à one minute with PBS containing 0.5 M NaCL, and 0.1% (vol/vol) Tween 20 (pH 7.2) and unspecific protein binding was blocked with 100 μl 3% (wt/vol) milk powder in PBS for 1 hour. The plates were washed four times à one minute with PBS containing 0.5 M NaCL, and 0.1% (vol/vol) Tween 20 (pH 7.2). 100 μl of serum diluted 1:200 in PBS containing 0.1% (vol/vol) Tween 20, 0.02% NaN3 and 1% (wt/vol) milk powder was added to the wells and incubated for 2 h at 20° C. The plates were washed four times à one minute with PBS containing 0.5 M NaCL, and 0.1% (vol/vol) Tween 20 (pH 7.2) and 100 μl peroxidase conjugated rabbit anti-human immunoglobulin M (IgM) (Dakopats, Copenhagen, Denmark, code P-215) diluted 1:1000 in PBS pH 7.4 with 0.05% (vol/vol) Tween 20 and 1% (wt/vol) milk powder. After the incubation for 1 h at 20° C. the plates were washed four times à one minute with PBS containing 0.5 M NaCL, and 0.1% (vol/vol) Tween 20 (pH 7.2) and 200 μl of the substrate o-phenylenediamine (0.41 mg/ml; Sigma) in citrate buffer (pH 5) with 0.04% (vol/vol) H2O2) was added to each well. After 15 minutes protected from light, the enzymatic reaction was stopped by the addition of 50 μl of 3M H2SO4. The optical density (OD) at 492 nm was read spectrophotometrically (Immuno Reader, Easy reader EAR 400 AC—SLT Labinstruments, AUSTRIA). Samples were tested in duplicate and retested, if the two OD values differed more than 10% from the mean. To eliminate plate-to-plate and day-to-day variations, a reference serum pool based on seven western blot positive sera were included on every plate for construction of a standard dilution curve with a two fold dilution ranging from 1:200 to 1:6400. The OD value of every sample was adjusted to this standard curve. Positive and negative control sera were included on every plate. The positive control sera were diluted 1:200, 1:400 and 1:800 on every plate to check for parallelism between the standard reference curve and the dilution curve of the positive control sera.
The diagnostic cutoff OD was adjusted to be 98% specific for an IgM assay on the basis of serum samples from 100 healthy danish blood donors, and was 0.230 for the IgM assay.
In a preliminary setup, rOspCt was used in the above-described rOspC ELISA. Sera from 47 patients with EM, 50 with NB, 30 with ACA and 29 with syphilis were tested against rOspCt.
The capability of an immunological agent according to the present invention to react with sera from patients in various stages of Lyme borreliosis was evaluated against that of recombinant OspC derived from B. garinii and against conventional flagellum ELISAs (performed as described in Hansen K. et al. (1991) and Hansen K. et al. (1988)). These flagellum assays (testing for IgM and IgG antibodies to native B. burgdorferi flagellum) are commercially available, a μ-capture ELISA (DAKO, Denmark code K006), and an indirect IgG ELISA (DAKO, Denmark code K416). Both assays use flagella purified from strain DK1 belonging to the genospecies of B. afzelii. The ELISAs were performed according to the instructions of the manufacturer, and the results were expressed as optical density (OD) values. In both assays the diagnostic cut-off level was adjusted to a specificity of 98% based on the examination of 100 blood donors.

Square brackets hold non-standard residues; d marks the D form. Thz = O=C(O)[C@@H]1CSCN1

Turning to “9-arg: variant of SEQ ID NO: 1 in which 9-lys was substituted with 9-arg (PVVAESPKRP; FRAGMENT TYPE C-terminal; STRAIN DK6, INDIVIDUAL ISOLATE BN1068; listed as Borrelia garinii)”, in assay [1], the “ability to inhibit binding between rOspCfl and the 5 antisera” value was “no effect”.

Turning to “NH2-AVVAESPKKP-COOH (H-AVVAESPKKP-OH) [SEQ ID NO: 32]”, the “ability to inhibit binding between rOspCfl and the 5 antisera” value in assay [1] is on record as “capable of inhibiting binding”.

As to “NH2-PAVAESPKKP-COOH (H-PAVAESPKKP-OH) [SEQ ID NO: 31]”, the “ability to inhibit binding between rOspCfl and the 5 antisera” value in assay [1] is “capable of inhibiting binding”.

Consider “NH2-PKKP-COOH (H-PKKP-OH) [SEQ ID NO: 22]”, for which the “patient sera in which binding between rOspCfl and antibodies was inhibited” value in assay [1] (six NB sera with OD>1.5 in the IgM rOspC ELISA) is on record as “one single serum”.

Turning to “NH2-PPPPESPKKP-COOH (H-PPPPESPKKP-OH) [SEQ ID NO: 39]”, the inhibition in assay [1] (Serum 1) was 70% inhibition; in assay [1] (Serum 2) it was 100% inhibition; in assay [1] (Serum 3), 100% inhibition; in assay [1] (Serum 4) it was 0% inhibition; in assay [1] (Serum 5), 40% inhibition.

With “NH2-PVAAESPKKP-COOH (H-PVAAESPKKP-OH) [SEQ ID NO: 30]”, the “ability to inhibit binding between rOspCfl and the 5 antisera” value in assay [1] is on record as “capable of inhibiting binding”.

In the case of “NH2-PVVAASPKKP-COOH (H-PVVAASPKKP-OH) [SEQ ID NO: 28]”, the “ability to inhibit binding between rOspCfl and the 5 antisera” value in assay [1] is given as “capable of inhibiting binding”.

For “NH2-PVVAEAPKKP-COOH (H-PVVAEAPKKP-OH) [SEQ ID NO: 27]”, the “ability to inhibit binding between rOspCfl and the 5 antisera” value in assay [1] was “capable of inhibiting binding”.

For the molecule “NH2-PVVAES*KKP-COOH (H-PVVAES[Thz]KKP-OH; SMILES CC(C)[C@H](NC(=O)[C@@H]1CCCN1)C(=O)N[C@H](C(=O)N[C@@H](C)C(=O)N[C@@H](CCC(=O)O)C(=O)N[C@@H](CO)C(=O)N1CSC[C@H]1C(=O)N[C@@H](CCCCN)C(=O)N[C@@H](CCCCN)C(=O)N1CCC[C@H]1C(=O)O)C(C)C) [* designates L-thiazolidine-4-carboxylic acid]”, the “number of sera in which binding to rOspCfl was inhibited” value (“number … to rOspCfl was inhibited” for short) in assay [1] was 5 sera.

As to “NH2-PVVAESAKKP-COOH (H-PVVAESAKKP-OH) [SEQ ID NO: 26]”, the “number … to rOspCfl was inhibited” value in assay [1] came to 1 sera.

With “NH2-PVVAESPAKP-COOH (H-PVVAESPAKP-OH) [SEQ ID NO: 25]”, the “number … to rOspCfl was inhibited” value in assay [1] worked out at 3 sera.

Regarding “NH2-PVVAESPKAP-COOH (H-PVVAESPKAP-OH) [SEQ ID NO: 24]”, in assay [1], the “number … to rOspCfl was inhibited” value turned out to be 1 sera.

Consider “NH2-PVVAESPKKA-COOH (H-PVVAESPKKA-OH) [SEQ ID NO: 23]”, for which the “number … to rOspCfl was inhibited” value in assay [1] worked out at 0 sera.

Regarding “NH2-PVVAESPKKP-CONH2 (H-PVVAESPKKP-NH2) [SEQ ID NO: 33]”, the “ability to inhibit binding between rOspCfl and the 5 antisera” value in assay [1] is recorded as “incapable of inhibiting binding”.

Consider “NH2-PVVAESPKNP-COOH (H-PVVAESPKNP-OH) [SEQ ID NO: 38]”, for which the inhibition in assay [1] (Serum 1) was determined as 50% inhibition; in assay [1] (Serum 2), 0% inhibition; in assay [1] (Serum 3) it was 0% inhibition; in assay [1] (Serum 4), 0% inhibition; in assay [1] (Serum 5) it was 0% inhibition.

For “NH2-PVVFESPKKP-COOH (H-PVVFESPKKP-OH) [SEQ ID NO: 29]”, the “ability to inhibit binding between rOspCfl and the 5 antisera” value in assay [1] is “capable of inhibiting binding”.

As for “NH2-PVVPESPKKP-COOH (H-PVVPESPKKP-OH) [SEQ ID NO: 37]”, the inhibition in assay [1] (Serum 1) is reported as 70% inhibition; in assay [1] (Serum 2), 100% inhibition; in assay [1] (Serum 3), 100% inhibition; in assay [1] (Serum 4) it was 0% inhibition; in assay [1] (Serum 5), 40% inhibition.

B1: rOspCfl from B. afzelii: full-length recombinant OspC from strain DK26 of Borrelia afzelii (SEQ ID NO: 7) (protein, listed as Borrelia afzelii)
chain: MKKNTLSAILMTLFLFISCNNSGKGGDSASTNPADESAKGPNLTEISKKITDSNAFVLAVKEVETLVLSIDELAKKAIGQKIDNNNGLAALNNQNGSLLAGAYAISTLITEKLSKLKNLEELKTEIAKAKKCSEEFTNKLKSGHADLGKQDATDDHAKAAILKTHATTDKGAKEFKDLFESVEGLLKAAQVALTNSVKELTSPVVAESPKKP
As for B1, in assay [2], the “immunoassay results compared with rOspCfl from B. garinii” value is recorded as “almost identical picture”.

B2: rOspCfl from B. burgdorferi sensu stricto: full-length recombinant OspC from strain DK7 of Borrelia burgdorferi sensu stricto (SEQ ID NO: 5) (protein)
chain: MKKNTLSAILMTLFLFISCNNSGKDGNTSANSADESVKGPNLTEISKKITDSNAVLLAVKEVEALLSSIDELAKAIGKKIKNDGSLGDEANHNESLLAGAYTISTLITQKLSKLNGSEGLKEKIAAAKKCSEEFSTKLKDNHAQLGIQGVTDENAKKAILKANAAGKDKGVEELEKLSGSLESLSKAAKEMLANSVKELTSPVVVESPKKP
modifications: Borrelia burgdorferi sensu stricto
On to B2, for which the “immunoassay results compared with rOspCfl from B. garinii” value in assay [2] was “almost identical picture”.

B3: B. afzelii derived rOspCt: recombinant B. afzelii DK26 OspC truncate lacking the seven C-terminal amino acids (protein)
chain: CNNSGKGGDSASTNPADESAKGPNLTEISKKITDSNAFVLAVKEVETLVLSIDELAKKAIGQKIDNNNGLAALNNQNGSLLAGAYAISTLITEKLSKLKNLEELKTEIAKAKKCSEEFTNKLKSGHADLGKQDATDDHAKAAILKTHATTDKGAKEFKDLFESVEGLLKAAQVALTNSVKELTSPVV
modifications: left off: small tags and cut ends
notes: recombinant B. afzelii DK26 OspC truncate lacking the seven C-terminal amino acids
Regarding B3, in assay [2] (serum panel 1, IgM), the “Positive rOspCt ELISA results” value is “no positives”.
